Entries after “also recorded” stand apart in the source; their conditions may differ. Counter-ions that a name gives are not always drawn. Like-named read-outs stand apart in the source and are kept apart here.
Assays:
MC-38 (colon cancer) = assay: Cell proliferation, MC-38; type: cell-based; conditions: Mus musculus
Text: (§1) Pancreatic cancer cell lines MiaPaCa-2, PANC1 (human), TB33117 (mouse), and KPCWT833 were used to test the effect of Compound Ia on cell proliferation. PANC1 and TB33117 cell lines express high levels of PAK1 and PAK4, while MiaPaCa-2 cell has low levels of PAK1 and PAK4 (Yeo, 2014 and unpublished data). […] Compound Ia was also shown to inhibit colorectal cell line MC-38, brain glioblastoma cancer cell like U-87, melanoma cell line B16F1, liver cell line HepG2, and bile duct cancer cell line EIG-1 at low to sub-micromolar IC50 values.

KPC833 cells = assay: In vivo efficacy in combination with Gemcitabine, subcutaneous KPC833 tumours in C57Bl6
[1] = tested on: TB33117 (pancreatic cancer); assay: Cell proliferation, TB33117; type: cell-based, mouse
Text: as §1

PAK1 = PAK1 (Homo sapiens, UniProt Q13153); assay: Cell-free kinase assay, PAK1; type: biochemical
Chain of PAK1 (Q13153 whole entry): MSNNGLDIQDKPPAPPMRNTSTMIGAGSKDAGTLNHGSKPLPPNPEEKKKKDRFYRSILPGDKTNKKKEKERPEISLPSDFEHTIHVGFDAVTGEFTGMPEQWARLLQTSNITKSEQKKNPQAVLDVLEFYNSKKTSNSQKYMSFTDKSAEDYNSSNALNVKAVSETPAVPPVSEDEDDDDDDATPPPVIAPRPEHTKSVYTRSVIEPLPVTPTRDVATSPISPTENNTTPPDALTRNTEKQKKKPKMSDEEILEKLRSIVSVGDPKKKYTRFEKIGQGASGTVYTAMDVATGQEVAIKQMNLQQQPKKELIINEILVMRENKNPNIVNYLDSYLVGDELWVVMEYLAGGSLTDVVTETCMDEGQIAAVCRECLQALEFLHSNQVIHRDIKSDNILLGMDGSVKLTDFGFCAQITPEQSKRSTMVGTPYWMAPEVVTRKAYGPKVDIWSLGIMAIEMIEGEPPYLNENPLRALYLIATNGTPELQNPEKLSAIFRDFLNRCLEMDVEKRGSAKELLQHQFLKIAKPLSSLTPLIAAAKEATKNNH

B16F10 (skin cancer) = assay: Cell proliferation, B16F10; type: cell-based; conditions: Mus musculus, B16-F10
[2] = tested on: alpha smooth muscle actin (α-SMA); assay: Western blot of α-SMA expression in DLD-1 cells; type: cell-based; conditions: 24 h
Method: (§2) Cells from a colorectal cancer cell line (DLD-1) were incubated with Compound Ia (0, 1, 10, 20, 50 μM), or with compound PF-3758309 (500 nM) for 24 h. At the end of 24 h culture, the medium was removed from the cells, and the cells were washed once with PBS. The cells were lysed in SDS-sample buffer. The resultant cell lysates were subjected to 10% SDS-PAGE to separate the proteins with different molecular weights, which then were blotted with antibodies against PD-L1, PAK1, PAK4, α-SMA and GAPDH.

PAK4 = assay: Western blot of PAK4 expression in DLD-1 cells; type: cell-based; conditions: 24 h
Method: as §2

[3] = tested on: PANC1 (pancreatic cancer); assay: Cell proliferation, PANC1; type: cell-based, human
Text: as §1

PAK4 kinase = PAK4 kinase (Homo sapiens, UniProt O96013); assay: Cell-free kinase assay, PAK4; type: biochemical; conditions: read-out: IC50, inhibition of PAK4 kinase
Chain of PAK4 kinase (O96013 whole entry): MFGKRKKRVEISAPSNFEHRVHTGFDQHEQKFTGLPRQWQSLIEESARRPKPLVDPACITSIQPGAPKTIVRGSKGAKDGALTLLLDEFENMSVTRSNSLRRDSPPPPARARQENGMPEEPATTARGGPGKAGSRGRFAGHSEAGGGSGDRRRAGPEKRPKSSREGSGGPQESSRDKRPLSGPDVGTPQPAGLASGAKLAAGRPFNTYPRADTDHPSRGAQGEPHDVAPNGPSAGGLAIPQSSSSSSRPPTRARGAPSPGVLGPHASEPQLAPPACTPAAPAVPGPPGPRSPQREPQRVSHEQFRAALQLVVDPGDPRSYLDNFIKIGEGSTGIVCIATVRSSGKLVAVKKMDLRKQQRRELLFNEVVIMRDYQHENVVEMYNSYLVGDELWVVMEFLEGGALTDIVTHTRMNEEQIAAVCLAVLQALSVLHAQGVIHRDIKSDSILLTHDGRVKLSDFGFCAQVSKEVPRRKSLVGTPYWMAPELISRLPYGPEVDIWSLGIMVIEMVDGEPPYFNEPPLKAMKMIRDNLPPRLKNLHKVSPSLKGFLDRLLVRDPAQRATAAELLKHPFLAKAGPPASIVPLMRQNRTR

[4] = tested on: EIG-1 (cholangiocarcinoma); assay: Cell proliferation, EIG-1; type: cell-based
Text: as §1

[5] = tested on: immunological biomarkers in tumour tissues; assay: Immunological biomarkers in tumour tissues by flow cytometry, syngeneic mouse models of pancreatic cancer; type: in vivo; conditions: combination with Gemcitabine
Method: The effects of Compound Ia on immunological biomarkers was assessed using syngeneic mouse models of pancreatic cancer.
Single cell suspension was made from tumour tissues isolated from mice treated with either gemcitabine alone or gemcitabine plus PAK227. The cell suspension was incubated with antibodies against CD45, CD4, CD8, B220, PD-L1, PD-1, CD11b and Ly6c, and then subjected to a flow-cytometry machine for cell number counting and percentage calculation.

[6] = tested on: KPCWT833 (pancreatic cancer); assay: Cell proliferation, KPCWT833; type: cell-based
Text: as §1

[7] = tested on: MiaPaCa-2 (pancreatic cancer); assay: Cell proliferation, MiaPaCa-2; type: cell-based; conditions: Homo sapiens, MIA PaCa-2
Text: as §1

U-87 (brain tumour) = assay: Cell proliferation, U-87; type: cell-based; conditions: Homo sapiens, U-87 MG
Text: as §1

HepG2 (liver cancer) = assay: Cell proliferation, HepG2; type: cell-based; conditions: Homo sapiens
Text: as §1

CHEK2 = biological target: T1, CHEK2 (Homo sapiens, UniProt O96017); assay: ADP-Glo kinase assay, CHEK2; type: biochemical
T1 construct: purchased Promega (Sydney, NSW, Australia)
T1 sequence (O96017 whole entry): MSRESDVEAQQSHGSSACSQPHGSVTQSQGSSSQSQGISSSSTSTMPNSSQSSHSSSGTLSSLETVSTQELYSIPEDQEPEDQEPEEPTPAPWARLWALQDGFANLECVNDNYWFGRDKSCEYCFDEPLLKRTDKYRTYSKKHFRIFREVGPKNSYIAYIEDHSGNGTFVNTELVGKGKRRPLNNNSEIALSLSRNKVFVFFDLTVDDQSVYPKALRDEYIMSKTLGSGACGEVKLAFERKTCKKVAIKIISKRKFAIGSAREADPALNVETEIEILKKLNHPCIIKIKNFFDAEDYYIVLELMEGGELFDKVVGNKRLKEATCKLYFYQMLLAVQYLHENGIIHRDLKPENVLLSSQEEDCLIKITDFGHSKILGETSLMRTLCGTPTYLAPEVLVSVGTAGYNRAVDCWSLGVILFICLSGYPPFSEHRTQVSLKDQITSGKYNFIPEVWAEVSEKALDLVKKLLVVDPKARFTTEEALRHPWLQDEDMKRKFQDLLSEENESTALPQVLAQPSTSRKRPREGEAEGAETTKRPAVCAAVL
Method: The effects of Compound Ia on CHEK2 kinase activity was assessed using an ADP-Glo kinase assay kit purchased from Promega (Sydney, NSW, Australia). The assay was undertaken in accordance with the manufacturer's instructions.

PD-L1 = assay: Western blot of PD-L1 expression in DLD-1 cells; type: cell-based; conditions: DLD-1 cells, 0, 1, 10, 20, 50 μM, 24 h
Method: as §2

[8] = Dissolution of the prodrug in ethanol/water; type: physicochemical; conditions: 67% ethanol in water solution

CNc1ncc(-c2ccc(Cc3c(Cl)cc(OC)cc3Cl)o2)cn1 [Compound Ia, 5-[5-[(2,6-dichloro-4-methoxyphenyl)methyl]furan-2-yl]-N-methylpyrimidin-2-amine]
IC50 (MC-38 (colon cancer)): 460 ± 390 nM | toxicity (body weight) (KPC833 cells; combination with Gemcitabine): no body weight loss was observed | tumour volume compared to untreated control tumours (KPC833 cells; combination with Gemcitabine, 21 days and 31 days, 40 mg/Kg subcutaneous every other day): regression of pancreatic tumour growth | efficacy against advanced tumours compared to Gemcitabine alone (KPC833 cells; combination with Gemcitabine, tumour size=100 mm^3): improved efficacy | tumour volume over 21 days compared to gemcitabine alone (KPC833 cells; intra-tumour injection 10 mg/kg on day 1, followed by gemcitabine 50 mg/kg): decreased tumour volume | IC50 [1]: 1000 to 2000 nM | IC50 ([1]; Mus musculus): 1720 nM | effect on the kinase activity of PAK1 (PAK1): did not show significant effect | IC50 (B16F10 (skin cancer)): 13300 nM | expression of alpha smooth muscle actin (α-SMA) [2]: reduced expression | expression of PAK4 (PAK4): reduced expression | IC50 ([3]; Homo sapiens, PANC-1, PANC1): 1110 nM | IC50 ([3]; PANC1): 1000 to 2000 nM | IC50 (PAK4 kinase): 200 to 500 nM | IC50 [4]: 4630 nM | expression of immunological biomarkers in tumour tissues compared to Gemcitabine alone [5]: increases the expression of immunological biomarkers; also recorded: increases various immunological biomarkers | IC50 [6]: 1230 ± 390 nM | IC50 [7]: 8290 nM | IC50 (U-87 (brain tumour)): 6550 ± 3550 nM | IC50 (HepG2 (liver cancer)): 3760 ± 660 nM | IC50 (CHEK2): 737 nM | expression of PD-L1 (PD-L1): dose-dependently inhibited | expression of PD-L1 (PD-L1; listed as Compound Ta): reduced the expression of PD-L1 to a comparable level

COc1cc(Cl)c(Cc2ccc(-c3cnc(NC(=O)CN)nc3)o2)c(Cl)c1 [Compound Ic, 2-amino-N-(5-{5-[(2,6-dichloro-4-methoxyphenyl)methyl]furan-2-yl}pyrimidin-2-yl)acetamide hydrochloride]
solubility in ethanol/water [8]: able to be dissolved

Cc1nc(Nc2n[nH]c3c2CN(C(=O)N[C@H](CN(C)C)c2ccccc2)C3(C)C)c2sccc2n1 [PF3758309, reference compound]
IC50 ([1]; Mus musculus): 805 nM | IC50 ([3]; Homo sapiens, PANC-1, PANC1): 500 nM | IC50 [7]: 87 nM
